The values that follow come from PMC12498190, “A Photocaged N‐Phosphonopiperidinone as a Selective Photo‐Cleavable DPP8/9 Inhibitor” (Chembiochem, 2025).

Structures are written as SMILES. Read-outs that look alike come from different tables or passages of the source.

The format of the series is physicochemical. The conditions noted are these: 50 µM in 10% acetonitrile/water, green LED 520-530 nm, 30 W. As to the method:
With 5 in our hands, we then started our probe characterization by determining the velocity of the photorelease reaction, i.e., the light‐triggered cleavage of the photocage, thereby delivering again the “active” inhibitor 1. To this end, a 50 µM solution of 5 in 10% acetonitrile in MS‐grade water was irradiated with a green LED lamp (λ = 520‐530 nm, 30 W) for the indicated time periods, and the release of the active inhibitor 1 was quantified via liquid chromatography‐mass spectrometry (LC–MS) analysis (Figure 1A). […] After 3 min, cleavage was quantitative (>99%). Importantly, the only products observed were the desired ‘free’ inhibitor 1 and the cleaved photogroup, indicating a clean activation to 1.
Figure 1 DPP inhibition by photo‐cleavable inhibitors. A) LC‐MS analysis of the photocleavage reaction of 5 after irradiation with green light. 50 µM of compound 5 was irradiated with a green LED lamp (λ = 520‐530 nm, 30 W) for up to 5 min, and the resulting reaction mixture was analyzed via LC‐MS. […] B) Resulting quantification of the photolysis of 5 based on peak areas depicted in A) (n = 3 technical replicates). […] Enzyme activity was determined by measuring the release of AMC from the substrate GP‐AMC. […]
Compound 5 was dissolved in DMSO. In order to quantify the effect of irradiation time on photocleavage of the BODIPY moiety, 50 µL aliquots of a 50 µM solution of 5 in 10% acetonitrile (ACN; VWR Chemicals, USA) in MS‐grade water (VWR Chemicals, USA) were irradiated for 0–5 min with a green LED lamp (λ = 520–530 nm, 30 W; Eurolite, Germany) at room temperature (RT) and gentle shaking (final DMSO concentration: 0.5%).
Quantification of inhibitor release was then determined via LC‐MS on an LTQ XL linear ion trap mass spectrometer (ITMS; Thermo Fisher Scientific, USA) coupled to a DIONEX UltiMate 3000 system (Thermo Fisher Scientific, USA), operated using Xcalibur software 4.4.16.14. […] Quantification was done using Freestyle v1.6. based on the UV spectra (λ = 254 nm) using the Avalon peak detection algorithm. […]

`CCCCCc1ccc(SCCP(=O)(OCC)N2CCC[C@H](NC(=O)OCC3=C4C(C)=CC(C)=[N+]4[B-](C)(C)n4c(C)cc(C)c43)C2=O)cc1` (some centres unmarked) [Compound 5] displayed a Photocage cleaved off (after 2 min) of 95% and a Photocage cleaved off (after 3 min) above 99%.
